US5877202A, “Indole derivatives useful to treat estrogen-related neoplasms and disorders” (priority 1996, dated 1999)
Where two headings read alike, the source gives them in different places.

Key:
estrogen receptors = target: T1, estrogen receptors (Homo sapiens, UniProt P03372); test: Quantification of estrogen receptors in nuclear and whole cell extracts (ER-EIA monoclonal kit), Table 1; type: cell-based, human (MCF-7 human breast cancer cells)
T1 construct: estrogen receptor extracted from MCF-7 human breast tumor cells; endogenous in cells; host or cells: MCF-7 human breast cancer cells (nuclear extract, cytosol or whole cell extract)
T1 sequence (P03372 1-595): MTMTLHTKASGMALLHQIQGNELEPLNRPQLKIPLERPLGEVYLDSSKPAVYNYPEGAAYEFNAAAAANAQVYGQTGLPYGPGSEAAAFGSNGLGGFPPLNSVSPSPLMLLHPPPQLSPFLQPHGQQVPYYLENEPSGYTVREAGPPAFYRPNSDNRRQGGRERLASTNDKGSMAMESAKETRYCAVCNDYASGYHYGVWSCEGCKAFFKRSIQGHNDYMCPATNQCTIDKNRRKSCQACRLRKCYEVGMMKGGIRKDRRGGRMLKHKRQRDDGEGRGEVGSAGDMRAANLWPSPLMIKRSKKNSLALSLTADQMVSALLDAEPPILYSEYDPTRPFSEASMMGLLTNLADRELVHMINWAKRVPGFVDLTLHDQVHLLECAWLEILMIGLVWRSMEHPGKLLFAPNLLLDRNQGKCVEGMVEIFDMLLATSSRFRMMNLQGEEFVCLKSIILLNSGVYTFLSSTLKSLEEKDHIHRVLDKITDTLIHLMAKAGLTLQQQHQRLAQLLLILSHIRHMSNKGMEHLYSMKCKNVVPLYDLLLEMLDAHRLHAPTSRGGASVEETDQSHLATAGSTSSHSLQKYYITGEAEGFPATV
Procedure: (§1) Monolayers of MCF-7 human breast cancer cells are rinsed once with HBSS and scraped off culture dishes into 15 ml conical tubes with 5 ml HBSS. The cells are sedimented by centrifugation at 250×g for five minutes, suspended in 1 ml HBSS and sedimented by centrifugation at 2000 rpm in a tabletop centrifuge for five minutes in a 1.5 ml microfuge tube. Two PCV of a solution of a lysis buffer (25 mM HEPES, pH 7.8, 50 mM KCl, 0.5% Nonidet P 40, 2 mM dithiothreitol, 0.2 mM phenylmethylsulfonyl fluoride, 0.05 mg/ml leupeptin, 0.05 mg/ml aprotinin, 0.0025 mg/ml pepstatin, 0.005 mg/ml antipain) are added and cells are kept on ice for 15 minutes. Lysed cells are centrifuged for 3 minutes at 10,000×g, supernatant decanted, and kept as the cytosol fraction. Pellets are suspended in two PCV of extraction buffer (25 mM HEPES, pH 7.8, 500 mM KCl, 10% glycerol, 2 mM dithiothreitol and the above protease inhibitors), mixed for 20 minutes by inversion at 4 degrees C. and centrifuged at 10,000×g for 20 minutes. The supernatant is decanted and saved as nuclear extract. Both the nuclear extract and the cytosol are dialyzed for two hours against dialysis buffer (25 mM HEPES, pH 7.8, 50 mM KCl, 10% glycerol, 2 mM dithiothreitol and the above protease inhibitors). Nuclear and cytosol fractions are stored frozen at -80 degrees C. until used for mobility shift assays or determination of estrogen receptor content.
Whole cell extracts of tumor cells are prepared by the method of Reese and Katzenellenbogen, Nuc. Acids Res., 19: 6595-6602 (1991), with some modifications. Cell monolayers are rinsed once with HBSS, then scraped into HBSS and sedimented by centrifugation (5 min., 250×g). After resuspending in 1 mL HBSS, the cells are again sedimented at 250×g for 5 min at 4° C. The cell pellet is resuspended in lysis/extract buffer containing 20 mM Tris, pH 7.5, 10% glycerol (v/v), 0.5M sodium chloride and 0.5% NP-40 (v/v) and incubated on ice for 25 minutes, then the supernatants are dialyzed against 25 mM HEPES, pH 7.8, 10% glycerol (v/v), 0.5 mM dithiothreitol and 50 mM potassium chloride for 2 hours at 4° C. Both the lysis/extraction and the dialysis buffers contain protease inhibitors which included 0.5 mM phenylmethylsulfonylfluoride, 0.05 mg/mL leupeptin, 0.05 mg/mL aprotinin, 0.00-25 mg/mL pepstatin, and 0.005 mg/mL antipain. Dialyzed whole cell extracts are stored in aliquots at -80° C. until used.
The protein concentration for nucleus and cytosol fractions are determined with a BIO-RAD kit, according to the manufacturer's instructions.
Estrogen receptor levels in nuclear and whole cell extracts of tumor cells were quanitated using the ER-EIA monoclonal kit manufactured by Abbott Laboratories (Diagnostic Division) according to the kit instructions.
receptors in nuclear extracts.
.dagger.WCE refers to IC50 value for estrogen receptors in whole cel
A slash dividing two numbers indicates the results of two separate

[1] = target: T2, estrogen receptor binding to an estrogen response element (Homo sapiens, UniProt P03372); test: Inhibition of estrogen receptor binding to an estrogen response element in DNA mobility shift assays; type: biochemical, human (nuclear extract of MCF-7 human breast cancer cells); conditions: read-out: integrated volume of shifted ERE oligo as percentage of control, given as % inhibition
T2 construct: estrogen receptor extracted from MCF-7 human breast tumor cells; endogenous in cells; host or cells: MCF-7 human breast cancer cells (nuclear extract, cytosol or whole cell extract)
T2 sequence (P03372 1-595): T1 sequence (P03372 1-595)
Procedure: as §1
Briefly, to each reaction tube was added 0.01 mg nuclear extract, 2 μg poly dIdC, 50 mM NaCl, 1 mM dithiothreitol and 10 mM Tris, pH 7.5 in a total volume of 0.01 ml and the mixture was kept at room temperature for 10 minutes. A ^32 P-labelled estrogen response element [ERE]

GAPDH mRNA = GAPDH mRNA levels in treated MCF-7 human breast tumor cells (positive control probe); type: cell-based; conditions: 30 μM, 24 hr;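 note: Phosphoimager intensity of radioactive mRNA bands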
Procedure: (§2) After treatment with 30 μM drug for 24 hr, total RNA is isolated according to the guanidinium isothiocyanate method using an RNA preparation kit from 5 Prime-3 Prime, Inc., following the manufacturer's instructions. The RNA is separated by formaldehyde gel electrophoresis and transferred to a nylon membrane.

MCF-7 estrogen receptor = target: T3, MCF-7 estrogen receptor (Homo sapiens, UniProt P03372); test: Competitive binding assay, Relative Binding Affinities on binding of estradiol to MCF-7 estrogen receptor
T3 construct: estrogen receptor extracted from MCF-7 human breast tumor cells; endogenous in cells; host or cells: MCF-7 human breast cancer cells (nuclear extract, cytosol or whole cell extract)
T3 sequence (P03372 1-595): T1 sequence (P03372 1-595)
Procedure: Briefly, RBAs are determined from competitive binding assays with several concentrations of estradiol (E2) with and without test compound. After 16-18 hours of incubation at 4 degrees C., unbound [^3 H] E2 is separated from ER-bound [^3 H] E2. The IC50 is determined and the RBA is calculated as: […]

estrogen receptor mRNA = test: Reduction of estrogen receptor mRNA levels in treated MCF-7 human breast tumor cells; type: cell-based; conditions: 30 μM, 24 hr;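 for Estrogen Receptor mRNA band intensity: Phosphoimager intensity of radioactive mRNA bands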
Procedure: as §2

[2] = estrogen receptors in nuclear extracts
[3] = WCE: estrogen receptors in whole cell extracts

CCCCN(C)C(=O)CCCCCNC(=O)Cc1c(-c2ccc(O)cc2)n(Cc2ccccc2)c2ccc(O)cc12 [MDL 104,982, 6-[[5-Hydroxy-1-benzyl-2-[(4-hydroxy)phenyl]-1H-indol-3-yl]-acetylamino]-hexanoic acid methyl-butyl-amide]
IC50 (estrogen receptors; [2]): 20 µM

CCN(CC)C(=O)CCCCCCCNC(=O)Cc1c(C)n(C(=O)c2ccc(Cl)cc2)c2ccc(O)cc12 [MDL 104,631, 8-[[5-Hydroxy-1-(4-chlorobenzoyl)-2-methyl-1H-indol-3-yl]-acetylamino]-octanoic acid diethyl-amide]
IC50 (estrogen receptors; [2]): 16 µM

CCCCN(C)C(=O)CCCCCCCNC(=O)Cc1cn(Cc2ccccc2)c2ccccc12 [MDL 103,948, 8-[[1-Benzyl-1H-indol-3-yl]-acetylamino]-octanoic acid methyl-butyl-amide]
IC50 (estrogen receptors; [3]): 14 µM

CCCCN(C)C(=O)CCCCCCCNC(=O)Cc1c(C)n(C(=O)c2ccc(OC)cc2)c2ccc(O)cc12 [MDL 105,517, 8-[[5-Hydroxy-1-(4-methoxybenzoyl)-2-methyl-1H-indol-3-yl]-acetylamino]-octanoic acid methyl-butyl-amide]
IC50 (estrogen receptors; [2]): 16 µM

CCCCN(C)C(=O)CCCCCNC(=O)Cc1c(C)n(C(=O)c2ccc(Cl)cc2)c2ccc(O)cc12 [MDL 105,643, 6-[[5-Hydroxy-1-(4-chlorobenzoyl)-2-methyl-1H-indol-3-yl]-acetylamino]-hexanoic acid methyl-butyl-amide]
IC50 (estrogen receptors; [2]): 19 µM

CCCCN(C)C(=O)CCCCCCCNC(=O)Cc1c(C)n(C(=O)c2ccccc2)c2ccc(O)cc12 [MDL 105,813, 8-[[5-Hydroxy-1-benzoyl-2-methyl-1H-indol-3-yl]-acetylamino]-octanoic acid methyl-butyl-amide]
inhibition at 2 µM ([1]; 2 μM): 7.6% | inhibition at 5 µM ([1]; 5 μM): 60% | inhibition at 10 µM ([1]; 10 μM): 84% | inhibition at 20 µM ([1]; 20 μM): 33% | inhibition at 30 µM ([1]; 30 μM): 30% | GAPDH mRNA band intensity (GAPDH mRNA; replicate 1): 6,996 | GAPDH mRNA band intensity (GAPDH mRNA; replicate 2): 4,830 | inhibition of estradiol binding to MCF-7 ER (MCF-7 estrogen receptor; doses of 100 or 200 nM): did not significantly inhibit | inhibition of estradiol binding to MCF-7 ER (MCF-7 estrogen receptor; typically, at doses of 100 or 200 nM): less than 10% | ER/GAPDH mean (estrogen receptor mRNA; mean of replicates 1 and 2): 0.63 | ER/GAPDH (estrogen receptor mRNA; replicate 1): 0.75 | Estrogen Receptor mRNA band intensity (estrogen receptor mRNA; replicate 1): 5,288 | ER/GAPDH (estrogen receptor mRNA; replicate 2): 0.5 | Estrogen Receptor mRNA band intensity (estrogen receptor mRNA; replicate 2): 2,418 | activity at 30 µM (estrogen receptor mRNA; Homo sapiens, MCF7, read-out: ER/GAPDH % Control): 17%

CCCCNC(=O)CCCCCCCNC(=O)Cc1c(-c2ccc(O)cc2)n(Cc2ccccc2)c2ccc(O)cc12 [MDL 104,262, 8-[[5-Hydroxy-1-benzyl-2-[(4-hydroxy)phenyl]-1H-indol-3-yl]-acetylamino]-octanoic acid butyl-amide]
IC50 (estrogen receptors; [2]): 25 µM

Cc1c(CC(=O)NCCCCCCC(=O)N(C)c2ccccc2)c2cc(O)ccc2n1C(=O)c1ccccc1 [MDL 103,005, 7-[[5-Hydroxy-1-benzoyl-2-methyl-1H-indol-3-yl]-acetylamino]-heptanoic acid methyl-phenyl-amide]
IC50 (estrogen receptors; [2]): 27 µM

CCCCN(C)C(=O)CCCCCCNC(=O)Cc1c(-c2ccc(O)cc2)n(Cc2ccccc2)c2ccc(O)cc12 [MDL 103,623, 7-[[5-Hydroxy-1-benzyl-2-[(4-hydroxy)phenyl]-1H-indol-3-yl]-acetylamino]-heptanoic acid methyl butyl-amide]
IC50 (estrogen receptors; [2]): 16 µM | IC50 (estrogen receptors; estrogen receptors in nuclear extracts, second of two separate experiments (after the slash)): 17 µM

CCCCN(C)C(=O)CCCCCCNC(=O)Cc1c(C)n(CCCc2ccccc2)c2ccc(O)cc12 [MDL 104,261, 7-[[5-Hydroxy-1-(3-phenylpropyl)-2-methyl-1H-indol-3-yl]-acetylamino]-heptanoic acid methyl-butyl-amide]
IC50 (estrogen receptors; [2]): 23.5 µM

CCCCN(C)C(=O)CCCCCCCNC(=O)Cc1cn(Cc2ccccc2)c2ccc(F)cc12 [MDL 104,822, 8-[[5-Fluoro-1-benzyl-1H-indol-3-yl]-acetylamino]-octanoic acid methyl-butyl-amide]
IC50 (estrogen receptors; [2]): 12 µM

CCCCN(C)C(=O)CCCCCCCNC(=O)Cc1c(-c2ccc(F)cc2)n(Cc2ccccc2)c2ccc(O)cc12 [MDL 103,970, 8-[[5-Hydroxy-1-benzyl-2-(4-fluorophenyl)-1H-indol-3-yl]-acetylamino]-octanoic acid methyl-butyl-amide]
IC50 (estrogen receptors; [2]): 16 µM

CCCCN(C)C(=O)CCCCCCCNC(=O)Cc1c(-c2ccc(OC(C)=O)cc2)n(Cc2ccccc2)c2ccc(OC(C)=O)cc12 [MDL 104,401, 8-[[5-Acetoxy-1-benzyl-2-[(4-acetoxy)-phenyl]-1H-indol-3-yl]-acetylamino]-octanoic acid methyl-butyl-amide]
inhibition at 2 µM [1]: 120% | inhibition at 5 µM [1]: 92% | inhibition at 10 µM [1]: 59% | inhibition at 20 µM [1]: 49% | inhibition at 30 µM [1]: 44% | IC50 (estrogen receptors; [2]): 28 µM

CCCCc1ccc(C(=O)n2c(C)c(CC(=O)NCCCCCCC(=O)N(CC)CC)c3cc(O)ccc32)cc1 [MDL 103,494, 7-[[5-Hydroxy-1-(4-butylbenzoyl)-2-methyl-1H-indol-3-yl]-acetylamino]-heptanoic acid diethyl-amide]
IC50 (estrogen receptors; [3]): 28 µM
